This is an account of results in US6087346A, “Sigma receptor ligands and the use thereof” (Cambridge Neuroscience, Inc., priority 1996, dated 2000).

SMILES strings stand for the structures. Where two headings read alike, the source gives them in different places.

Experiment [1] deals with T1, sigma-1 receptor (Cavia porcellus, UniProt Q60492). The settings on record: pH 8.
Method: (§1) Non-specific binding was determined in the presence of 10 μM haloperiodol. For the standard equilibrium assay the mixtures were incubated for 4-5 hours at 37° C., quenched with 4 ml of ice cold incubation buffer and rapidly filtered over Whatman GF/B glass fiber filters, followed by three 4 ml rinses with additional ice cole incubation buffer.
The target in the next experiment is T2, sigma-2 receptor (Cavia porcellus, UniProt H0V073).
T2 construct: of guinea pig brain membranes in a total volume of 0.5 ml; from tissue; host or cells: guinea pig brain membranes
T2 sequence (H0V073 1-176): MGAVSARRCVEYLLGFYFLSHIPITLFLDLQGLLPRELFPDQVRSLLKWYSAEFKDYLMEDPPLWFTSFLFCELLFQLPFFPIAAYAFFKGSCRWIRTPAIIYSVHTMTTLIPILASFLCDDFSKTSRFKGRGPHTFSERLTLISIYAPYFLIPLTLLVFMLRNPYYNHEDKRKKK
The experiment can be described thus: Sigma-2 binding assay ([^3 H]DTG in the presence of (+)pentazocine). The arrangement: species or system guinea pig.

Experiment [2] deals with sigma receptor (sigma-1 and sigma-2 sites). As to the kind of experiment: Sigma receptor binding assay ([^3 H]DTG, guinea pig brain membrane homogenates). The settings on record: Example 3 table; tested by the [^3 H]DTG assay of Example 2. The procedure: Briefly, frozen whole guinea-pig brains (Biotrol, Indianapolis, Ind.) were homogenized in 10 volumes (w/v) of ice-cold 320 mM sucrose using a Brinkman® polytron. The homogenate was centrifuged at 1,000× g for 20 minutes at 4° C. The supernatant was centrifuged at 20,000× g for 20 minutes at 4° C. The resulting pellet was resuspended in 10 initial volumes of 50 mM Tris/HCI buffer at pH 7.4 and centrifuged at 20,000× g for 20 minutes at 4° C. The resulting pellet was resuspended in 5 initial volumes ice-cold 50 mM Tris/HCl (pH 7.4), and the final volume was adjusted to yield a protein concentration of 3 mg/mL.
The protein concentration in the 1-ml final incubation volume was 800 μg/ml, corresponding to 32 mg of brain tissue (original wet weight) and to a tissue concentration within the linear range for specific binding.
The volume of the assays may be changed, specifically halved, so long as the concentrations of the constituents remain the same. […] Incubations were terminated after 90 minutes at room temperature by addition of 4 ml of ice-cold 50 mM Tris/HCI (pH 7.4) and rapid filtration of the membrane suspension through Whatman® GF/B or Schieicher & Schuell #32 glass-fiber filters under vacuum, using a 48-well cell harvester (Brandel). The filters were washed 2 times with 4 mL of 50 mM Tris/HCI (pH 7.4). Each filter was suspended in 10 ml Cytoscint (ICI), and radioactivity was measured by liquid scintillation spectrometry at a counting efficiency of approximately 50%. IC50 values (indicated as Ki in Tables II below) were determined by non-linear regression analysis.

Experiment [3] deals with T1, sigma-1 receptor. As to the kind of experiment: biochemical.
Method: as §1
In another experiment the target is sigma-1 site (Cavia porcellus, UniProt Q60492). The settings on record: Hellewell and Bowen (1990); cited from earlier work.
Chain of sigma-1 site (Q60492 whole entry): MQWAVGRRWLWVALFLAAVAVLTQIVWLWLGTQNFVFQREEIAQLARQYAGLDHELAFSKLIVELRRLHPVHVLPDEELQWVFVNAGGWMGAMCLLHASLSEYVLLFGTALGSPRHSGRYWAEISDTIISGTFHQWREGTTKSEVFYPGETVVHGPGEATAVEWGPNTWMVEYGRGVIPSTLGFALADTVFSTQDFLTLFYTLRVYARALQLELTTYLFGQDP
For experiment [4], the system named is NMDA-induced toxicity and seizures. The settings on record: in vivo; Pontecorvo et al.; cited from earlier work.
Another experiment relates to opiate receptors. The settings on record: cited from earlier work.
The test system of the next experiment is PCP receptors. The settings on record: cited from earlier work.
For experiment [5], the system named is NMDA-type of glutamate receptors. The settings on record: Rao et al.; cited from earlier work.
A further experiment has as its system sigma sites. The settings on record: in words; cited from earlier work.
A further experiment has as its system gerbils. The settings on record: in vivo, Rao et al.; cited from earlier work.
A further experiment deals with DA sites. The settings on record: cited from earlier work.

T1 sequence (Q60492 whole entry): as above
From the text for sigma-2 receptor: Protocols of the Sigma-1 and Sigma-2 binding assays employed are as follows:

By Ki is commonly meant the dissociation constant of the complex between target and ligand, obtained from inhibition or displacement. Low values mean tighter binding, high ones weaker binding. A word on the IC50: it is the concentration that inhibits the measured activity by half. For the compound `CN(CCCCCc1ccccc1)CCc1ccccc1`, the inhibition constant Ki on sigma-1 receptor [1] amounted to 0.25 nM. The IC50 was 4.98 nM at sigma-2 receptor (read-out: Sigma 2 IC50) and 1.3 nM in experiment [2].
For `c1ccc(CCCCCN2CCCC2)cc1`, the inhibition constant Ki on sigma-1 receptor [3] came to 0.76 nM. For the same compound, the IC50 on sigma-2 receptor (read-out: Sigma 2 IC50) turned out to be 69.7 nM; in experiment [2] it was 4.95 nM.
With `CN(CCCCC(O)c1cccc(C(F)(F)F)c1)CCc1ccccc1` (stereo not shown), the Ki at sigma-1 receptor [3] stood at 0.95 nM. For the same compound, the IC50 on sigma-2 receptor (read-out: Sigma 2 IC50) worked out at 3.02 nM.
The corresponding values for `CN1CCN(CCCCCc2ccccc2)CC1` are 1.44 nM and 78.9 nM.
The corresponding values for `CN1CCC(CCCCCc2ccccc2)CC1` are 0.6 nM and 97.3 nM.
The corresponding values for `O=[N+]([O-])c1ccc(CCCCCN2CCCCC2)cc1` are 0.16 nM and 9.91 nM.
In the case of `c1ccc2c(c1)C1CC2C(N2CCCCC2)C1` (stereo not shown), the affinity on sigma-1 receptor [1], expressed as Ki, was 0.13 nM. Besides, the IC50 at sigma-2 receptor (read-out: Sigma 2 IC50; about 2 nM [^3 H]DTG with 200 nM (+)pentazocine, guinea pig brain membranes, pH 7.4, 30 minutes room temperature) came to 5.29 nM.
Consider `c1ccc(CCCCCN2CCCC(Cc3ccccc3)C2)cc1` (stereo not shown), for which the Ki at sigma-1 receptor [3] was found to be 0.07 nM. For the same compound, on sigma-2 receptor (read-out: Sigma 2 IC50), the IC50 was found to be 4.17 nM.
The matching figures for `c1ccc(CCCCCN2CCCCC2c2ccccc2)cc1` (stereo not shown): 0.16 nM and 4.7 nM.
On sigma-1 receptor [3], `CN(CCCC=C(c1ccccc1)c1ccccc1)CCc1ccccc1` had a Ki of 0.9 nM. Besides, at sigma-2 receptor (read-out: Sigma 2 IC50), the concentration for half-maximal inhibition (IC50) came to 40.8 nM.
The corresponding values for `CCN(CC)CCCCC(c1ccccc1)c1ccccc1` are 1.42 nM and 51.2 nM.
Compound `CCN(CC)CCCCCc1ccccc1` had a Ki at sigma-1 receptor [3] of 6.01 nM. Further, the IC50 at sigma-2 receptor (read-out: Sigma 2 IC50) was 88.5 nM.
The matching figures for `c1ccc(Cc2cccc(CN3CCCCC3)c2)cc1`: 5.44 nM and 98.2 nM.
The corresponding values for `c1ccc(CCCCCN2CCCCC2Cc2ccccc2)cc1` (stereo not shown) are 0.36 nM and 10.4 nM.
The matching figures for `c1ccc(CNCCCN2CCN(c3ccccc3)CC2)cc1`: 1.96 nM and 101 nM.
On sigma-1 receptor [3], `CC1CCN(CCCCCc2ccccc2)CC1` came in with a Ki of 0.08 nM. Further, the 50% inhibitory concentration (IC50) at sigma-2 receptor (read-out: Sigma 2 IC50) was 7.1 nM.
The matching figures for `CN1CCC(=CCCCCc2ccccc2)CC1`: 9.87 nM and 258 nM.
`c1ccc(CCNCCCCC(c2ccccc2)c2ccccc2)cc1` had an inhibition constant Ki on sigma-1 receptor [3] of 0.68 nM. Further, the 50% inhibitory concentration (IC50) at sigma-2 receptor (read-out: Sigma 2 IC50) was found to be 100 nM.
As for `CC1CCN(CCCCC(c2ccccc2)c2ccccc2)CC1`, the Ki on sigma-1 receptor [1] is 0.1 nM. For the same compound, at sigma-2 receptor (about 2 nM [^3 H]DTG with 200 nM (+)pentazocine, guinea pig brain membranes, pH 7.4, 30 minutes room temperature; read-out: Sigma 2 IC50), the 50% inhibitory concentration (IC50) was 16.7 nM.
For the compound `CC(C)=CCN1CCC2(C)c3cc(O)ccc3CC1C2C` (single isomer, unassigned; (+)) [(+)pentazocine], the “affinity for the sigma-1 site compared to the sigma-2 site” value on sigma-1 site is listed as “nearly two orders of magnitude higher affinity for the sigma-1 site compared to the sigma-2 site”.
Take `OC(CCCN1CCN(c2ncc(F)cn2)CC1)c1ccc(F)cc1` (stereo not shown) [BMY-14802]: the “protective effects against NMDA-induced toxicity and seizures” value in experiment [4] is “in vivo protective effects against NMDA-induced toxicity and seizures”.
On to `C=CCN1CCC2(C)c3cc(O)ccc3CC1C2C` (stereo not shown) [NANM, N-allyl normetazocine], for which the “affinity at typical opiate receptors” value in the experiment with opiate receptors is recorded as “low affinity”. Moreover, the “affinity at PCP receptors” value in the experiment on PCP receptors is listed as “significant affinity”.
As for `CCN(CC)CCOC(=O)C1(c2ccccc2)CCCC1` [caramiphen], in [4], the “protective effects against NMDA-induced toxicity and seizures” value was “in vivo protective effects against NMDA-induced toxicity and seizures”.
Take `c1cc2c(cc1CCCCCN1CCCCC1)OCO2` [drawing 38]: the Ki on sigma-1 receptor [3] amounted to 0.32 nM. The IC50 on sigma-2 receptor (read-out: Sigma 2 IC50) came to 63.4 nM.
In the case of `OCCN1CCN(CCCN2c3ccccc3C=Cc3ccccc32)CC1` [opipramol], the “biochemical effects on NMDA-type glutamate receptors” value in experiment [5] is recorded as “biochemical effects consistent with modulation of the NMDA-type of glutamate receptors”. The “affinity for sigma sites” value in the experiment with sigma sites is reported as “potent sigma receptor ligand”. The protection against ischemia entry with gerbils is “protect against ischemia in gerbils”.
Regarding `O=C(CCCN1CCC2(CC1)C(=O)NCN2c1ccccc1)c1ccc(F)cc1` [spiperone], the “affinity for DA sites” value in the experiment with DA sites was “high affinity for DA sites”. Moreover, the “affinity for sigma sites” value in the experiment with sigma sites was “essentially no affinity for sigma sites”.
